One data set has as its system DPX2 cells. Particulars: for DPX2 Viability @ 6.25 μM: 24 h; for DPX2 Viability @ 25 μM: human.
Data set [1] deals with T1, E. coli D516V (RIF^R) RNAP (Escherichia coli, UniProt P0A8V2, D516V).
T1 construct: made in house
The data set can be described thus: biochemical.

The target in the next data set is T2, E. coli WT RNAP (Escherichia coli, UniProt P0A8V2).
T2 construct: made in house
The data set can be described thus: biochemical.

The next data set relates to MTB H37Rv ATCC 27294. The data set can be described thus: MIC, microplate Alamar Blue assay (MABA). Type of data set: cell-based, Mycobacterium tuberculosis. The conditions noted are these: for MIC: Mycobacterium tuberculosis, MTB H37Rv ATCC 27294, microplate Alamar Blue assay, lowest concentration giving ≥90% reduction in fluorescence, read-out: MIC90 MABA. Background: The colour change of resazurin is a common sign of viable cells or microbes.

In data set [2] the target is T3, E. coli S531L (RIF^R) RNAP (Escherichia coli, UniProt P0A8V2, S531L).
T3 construct: made in house
In words: biochemical.

Another data set deals with VERO cells (ATCC CRL-81). In words: Vero cell toxicity. The data set is classed as cell-based. The conditions noted are these: Chlorocebus sabaeus, Vero; 72 hours exposure. The method, then: Cytotoxicity for a mammalian cell line was determined by exposing VERO cells (ATCC CRL-81) to serial dilutions of test compounds for 72 hours, followed by addition of resazurin and measurement of fluorescence after 4 hours incubation (Choules, et al., Antimnicrob. Agents Chemother. 2019, 63, e02204-02218).

For a further data set, the system named is M. tuberculosis H37Rv. The data set can be described thus: Minimum bactericidal concentration (MBC, CFU Assay). The data set is classed as cell-based, Mycobacterium tuberculosis. Particulars: for MBC99 Day 7 (CFU Assay) MBC99 Rel to RMP: CFU Assay MBC99 relative to rifampin (RMP = 1); for MBC: Mycobacterium tuberculosis, 168 h, Day 7, M. tuberculosis H37Rv, ≥99% reduction in colony forming units, read-out: MBC99 Day 7 (CFU Assay) MBC99.

Usually IC50 stands for the concentration that inhibits the measured activity by half.

Structures are written as SMILES. Converted amounts (≈) assume the structure as drawn.

For the molecule `CO[C@H]1/C=C/O[C@@]2(C)Oc3c(C)c(O)c4c(=O)c(c5oc6cc(N7CCN(CC(C)C)CC7)cc(OCc7ccc(CN8CCN(C(=O)Cn9ccnc9)CC8)cc7)c6nc-5c4c3C2=O)NC(=O)/C(C)=C\C=C\[C@H](C)[C@H](O)[C@@H](C)[C@@H](O)[C@@H](C)[C@H](OC(C)=O)[C@@H]1C` [Compound 17c, (7S,9E,11S,12R,13S,14R,15R,16R,17S,18S,19E,21Z)-2,15,17-Trihydroxy-32-{[4-({4-[2-(1H-imidazol-1-yl)acetyl]piperazin-1-yl}methyl)phenyl]methoxy}-11-methoxy-3,7,12,14,16,18,22-heptamethyl-30-[4-(2-methylpropyl)piperazin-1-yl]-6,23,37-trioxo-8,27,38-trioxa-24,34-diazahexacyclo[23.11.1.1^4,7.0^5,36.0^26,35.0^28,33]octatriaconta-1(36)2,4,9,19,21,25,28,30,32,34-undecaen-13-yl acetate], in the data set on DPX2 cells, the “DPX2 Viability @ 6.25 μM” value is 102% and the “DPX2 Viability @ 25 μM” value amounted to 94%. The IC50 in data set [1] stood at 12 µM. It took 0.02 µM to reach half-maximal inhibition on E. coli WT RNAP (IC50). Further, in the data set with MTB H37Rv ATCC 27294, the “MIC90 MABA Rel to RMP” value stood at 1.3 and the MIC was found to be 0.023 µM. Also, in data set [2], the IC50 was found to be 100 µM. The molecule further showed an IC50 in the data set on VERO cells (ATCC CRL-81) of over 8 µM. In the data set on M. tuberculosis H37Rv, the “MBC99 Day 7 (CFU Assay) MBC99 Rel to RMP” value amounted to 0.15 and the MBC was 0.02 µM.
As for `CO[C@H]1/C=C/O[C@@]2(C)Oc3c(C)c(O)c4c(=O)c(c5oc6cccc(OCCCCN7CCOCC7)c6nc-5c4c3C2=O)NC(=O)/C(C)=C\C=C\[C@H](C)[C@H](O)[C@@H](C)[C@@H](O)[C@@H](C)[C@H](OC(C)=O)[C@@H]1C` [Compound 5b, (7S,9E,11S,12R,13S,14R,15R,16R,17S,18S,19E,21Z)-2,15,17-Trihydroxy-11-methoxy-3,7,12,14,16,18,22-heptamethyl-32-[4-(morpholin-4-yl)butoxy]-6,23,37-trioxo-8,27,38-trioxa-24,34-diazahexacyclo[23.11.1.1^4,7.0^5,36.0^26,35.0^28,33]octatriaconta-1(36)2,4,9,19,21,25,28(33)29,31,34-undecaen-13-yl acetate], in the data set with DPX2 cells, the “DPX2 Viability @ 6.25 μM” value is 81% and the “DPX2 Viability @ 25 μM” value was 45%. Besides, the half-maximal inhibitory concentration (IC50) in data set [1] was determined as 65 µM. For the same molecule, at E. coli WT RNAP, it took 0.007 µM to reach half-maximal inhibition (IC50). Also, in the data set on MTB H37Rv ATCC 27294, the “MIC90 MABA Rel to RMP” value is 0.70 and the MIC was found to be 0.021 µM. This molecule also came in with an IC50 in data set [2] of 390 µM. In addition, in the data set on VERO cells (ATCC CRL-81), the IC50 was over 8 µM. In the data set on M. tuberculosis H37Rv, the “MBC99 Day 7 (CFU Assay) MBC99 Rel to RMP” value is 0.38 and the MBC came out at 0.05 µM.
Consider `CO[C@H]1/C=C/O[C@@]2(C)Oc3c(C)c(O)c4c(=O)c(c5oc6cccc(OCCCCN7CCN(C)CC7)c6nc-5c4c3C2=O)NC(=O)/C(C)=C\C=C\[C@H](C)[C@H](O)[C@@H](C)[C@@H](O)[C@@H](C)[C@H](OC(C)=O)[C@@H]1C` [Compound 5a, (7S,9E,11S,12R,13S,14R,15R,16R,17S,18S,19E,21Z)-2,15,17-Trihydroxy-11-methoxy-3,7,12,14,16,18,22-heptamethyl-32-[4-(4-methylpiperazin-1-yl)butoxy]-6,23,37-trioxo-8,27,38-trioxa-24,34-diazahexacyclo[23.11.1.1^4,7.0^5,36.0^26,35.0^28,33]octatriaconta-1(36)2,4,9,19,21,25,28(33)29,31,34-undecaen-13-yl acetate], for which, in the data set on DPX2 cells, the “DPX2 Viability @ 6.25 μM” value is on record as 87% and the “DPX2 Viability @ 25 μM” value was determined as 47%. The IC50 in data set [1] worked out at 27 µM. Moreover, the IC50 on E. coli WT RNAP amounted to 0.006 µM. Further, in the data set with MTB H37Rv ATCC 27294, the “MIC90 MABA Rel to RMP” value is given as 3.1 and the MIC worked out at 0.092 µM. The same molecule yielded an IC50 in data set [2] of 790 µM. The same molecule registered an IC50 in the data set on VERO cells (ATCC CRL-81) of over 8 µM. For the same molecule, in the data set on M. tuberculosis H37Rv, the “MBC99 Day 7 (CFU Assay) MBC99 Rel to RMP” value was 0.77 and the MBC was determined as 0.1 µM.
With `CO[C@H]1/C=C/O[C@@]2(C)Oc3c(C)c(O)c4c(=O)c(c5oc6cc(N7CCN(C)CC7)cc(OCCCCN7CCN(C(=O)Cn8ccnc8)CC7)c6nc-5c4c3C2=O)NC(=O)/C(C)=C\C=C\[C@H](C)[C@H](O)[C@@H](C)[C@@H](O)[C@@H](C)[C@H](OC(C)=O)[C@@H]1C` [Compound 6c, (7S,9E,11S,12R,13S,14R,15R,16R,17S,18S,19E,21Z)-2,15,17-Trihydroxy-32-(4-{4-[2-(1H-imidazol-1-yl)acetyl]piperazin-1-yl}butoxy)-11-methoxy-3,7,12,14,16,18,22-heptamethyl-30-(4-methylpiperazin-1-yl)-6,23,37-trioxo-8,27,38-trioxa-24,34-diazahexacyclo[23.11.1.1^4,7.0^5,36.0^26,35.0^28,33]octatriaconta-1(36)2,4,9,19,21,25,28(33)29,31,34-undecaen-13-yl acetate], in the data set on DPX2 cells, the “DPX2 Viability @ 6.25 μM” value amounted to 108% and the “DPX2 Viability @ 25 μM” value is 111%. In addition, the half-maximal inhibitory concentration (IC50) in data set [1] turned out to be 12 µM. The same molecule yielded an IC50 at E. coli WT RNAP of 0.01 µM. Besides, in the data set with MTB H37Rv ATCC 27294, the “MIC90 MABA Rel to RMP” value is given as 2.7 and the MIC came out at 0.039 µM. This molecule also yielded an IC50 in data set [2] of 230 µM. The molecule further gave an IC50 in the data set with VERO cells (ATCC CRL-81) of 53 µM. In the data set on M. tuberculosis H37Rv, the “MBC99 Day 7 (CFU Assay) MBC99 Rel to RMP” value came out at 0.38 and the MBC was 0.05 µM.
In the case of `CO[C@H]1/C=C/O[C@@]2(C)Oc3c(C)c(O)c4c(=O)c(c5oc6cccc(OCCCCN7CCN(C(=O)OC(C)(C)C)CC7)c6nc-5c4c3C2=O)NC(=O)/C(C)=C\C=C\[C@H](C)[C@H](O)[C@@H](C)[C@@H](O)[C@@H](C)[C@H](OC(C)=O)[C@@H]1C` [Compound 5c, Tert-Butyl 4-(4-{[(7S,9E,11S,12R,13S,14R,15R,16R,17S,18S,19E,21Z)-13-(acetyloxy)-2,15,17-trihydroxy-11-methoxy-3,7,12,14,16,18,22-heptamethyl-6,23,37-trioxo-8,27,38-trioxa-24,34-diazahexacyclo[23.11.1.1^4,7.0^5,36.0^26,35.0^28,33]octatriaconta-1(36)2,4,9,19,21,25,28(33)29,31,34-undecaen-32-yl]oxy}butyl)piperazine-1-carboxylate], the IC50 in data set [1] was 22 µM; at E. coli WT RNAP, under 0.005 µM; in data set [2] it was 300 µM; in the data set with VERO cells (ATCC CRL-81), 6.2 µM. In the data set on MTB H37Rv ATCC 27294, the “MIC90 MABA Rel to RMP” value is recorded as 0.89. For the same molecule, in the data set with MTB H37Rv ATCC 27294, the MIC came to 0.024 µM (≈ 0.025 µg/mL). Moreover, in the data set with M. tuberculosis H37Rv, the “MBC99 Day 7 (CFU Assay) MBC99 Rel to RMP” value is 0.77. Besides, the MBC in the data set with M. tuberculosis H37Rv is 0.1 µM (≈ 0.104 µg/mL).
As for `CO[C@H]1/C=C/O[C@@]2(C)Oc3c(C)c(O)c4c(=O)c(c5oc6cccc(OCc7ccc(CN8CCN(C(=O)Cn9ccnc9)CC8)cc7)c6nc-5c4c3C2=O)NC(=O)/C(C)=C\C=C\[C@H](C)[C@H](O)[C@@H](C)[C@@H](O)[C@@H](C)[C@H](OC(C)=O)[C@@H]1C` [Compound 16b, (7S,9E,11S,12R,13S,14R,15R,16R,17S,18S,19E,21Z)-2,15,17-Trihydroxy-32-{[4-({4-[2-(1H-imidazol-1-yl)acetyl]piperazin-1-yl}methyl)phenyl]methoxy}-11-methoxy-3,7,12,14,16,18,22-heptamethyl-6,23,37-trioxo-8,27,38-trioxa-24,34-diazahexacyclo[23.11.1.1^4,7.0^5,36.0^26,35.0^28,33]octatriaconta-1(36)2,4,9,19,21,25,28,30,32,34-undecaen-13-yl acetate], in the data set on DPX2 cells, the “DPX2 Viability @ 6.25 μM” value is 117% and the “DPX2 Viability @ 25 μM” value is on record as 76%. The molecule also returned an IC50 in data set [1] of 24 µM. The molecule further displayed an IC50 on E. coli WT RNAP of 0.005 µM. In the data set on MTB H37Rv ATCC 27294, the “MIC90 MABA Rel to RMP” value was 1.6 and the MIC worked out at 0.029 µM. Half-maximal inhibition in data set [2] (IC50) required 160 µM. Moreover, the IC50 in the data set with VERO cells (ATCC CRL-81) is over 8 µM. Further, in the data set on M. tuberculosis H37Rv, the “MBC99 Day 7 (CFU Assay) MBC99 Rel to RMP” value came out at 0.15 and the MBC came to 0.02 µM.
As to `CO[C@H]1/C=C/O[C@@]2(C)Oc3c(C)c(O)c4c(=O)c(c5oc6cc(N7CCN(CC(C)C)CC7)cc(OCCCCN7CCN(C(=O)Cn8ccnc8)CC7)c6nc-5c4c3C2=O)NC(=O)/C(C)=C\C=C\[C@H](C)[C@H](O)[C@@H](C)[C@@H](O)[C@@H](C)[C@H](OC(C)=O)[C@@H]1C` [Compound 6d, (7S,9E,11S,12R,13S,14R,15R,16R,17S,18S,19E,21Z)-2,15,17-Trihydroxy-32-(4-{4-[2-(1H-imidazol-1-yl)acetyl]piperazin-1-yl}butoxy)-11-methoxy-3,7,12,14,16,18,22-heptamethyl-30-[4-(2-methylpropyl)piperazin-1-yl]-6,23,37-trioxo-8,27,38-trioxa-24,34-diazahexacyclo[23.11.1.1^4,7.0^5,36.0^26,35.0^28,33]octatriaconta-1(36)2,4,9,19,21,25,28,30,32,34-undecaen-13-yl acetate], in the data set on DPX2 cells, the “DPX2 Viability @ 6.25 μM” value is 104% and the “DPX2 Viability @ 25 μM” value is reported as 90%. Moreover, the midpoint of inhibition in data set [1], the IC50, lay at 59 µM. The molecule further yielded an IC50 on E. coli WT RNAP of 0.008 µM. For the same molecule, in the data set with MTB H37Rv ATCC 27294, the “MIC90 MABA Rel to RMP” value was determined as 1.3 and the MIC is 0.024 µM. The concentration for half-maximal inhibition (IC50) in data set [2] stood at 93 µM. This molecule came in with an IC50 in the data set with VERO cells (ATCC CRL-81) of over 8 µM. In addition, in the data set on M. tuberculosis H37Rv, the “MBC99 Day 7 (CFU Assay) MBC99 Rel to RMP” value came to 0.23 and the MBC came out at 0.03 µM.

The values above are taken from patent US20250188092A1, “RIFAMYCIN ANALOGS” (THE REGENTS OF THE UNIVERSITY OF MICHIGAN, priority 2021, published 2025).
